Test results reported in patent US20240124432A1, “HERBICIDAL COMPOUNDS” (SYNGENTA CROP PROTECTION AG, priority 2020, published 2024).

Key:
Format in all cases: in vivo
ECHCG [1] = experiment: Pre-emergence biological efficacy; conditions: Echinochloa crus-galli, 312 h, evaluated after 13 days, read-out: damage to plant (100=total damage to plant; 0=no damage to plant)
Procedure, shortened: (§1)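 Pre-emergence spray applied one day after sowing in standard soil, compound delivered from an IF50-based emulsifiable formulation diluted in 0.2% Genapol XO80. Plants then grew under glasshouse conditions for 13 days before damage was rated on a 0 (none) to 100 (total) scale.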

LOLPE [2] = experiment: Pre-emergence biological efficacy; conditions: Lolium perenne, 312 h, evaluated after 13 days, read-out: damage to plant (100=total damage to plant; 0=no damage to plant)
Procedure, shortened: as §1

EPHHL [3] = experiment: Pre-emergence biological efficacy; conditions: Euphorbia heterophylla, 312 h, evaluated after 13 days, read-out: damage to plant (100=total damage to plant; 0=no damage to plant)
Procedure, shortened: as §1

IPOHE [4] = experiment: Pre-emergence biological efficacy; conditions: Ipomoea hederacea, 312 h, evaluated after 13 days, read-out: damage to plant (100=total damage to plant; 0=no damage to plant)
Procedure, shortened: as §1

SETFA [5] = experiment: Pre-emergence biological efficacy; conditions: Setaria faberi, 312 h, evaluated after 13 days, read-out: damage to plant (100=total damage to plant; 0=no damage to plant)
Procedure, shortened: as §1

AMAPA [6] = experiment: Pre-emergence biological efficacy; conditions: Amaranthus palmeri, 312 h, evaluated after 13 days, read-out: damage to plant (100=total damage to plant; 0=no damage to plant)
Procedure, shortened: as §1

ECHCG [7] = experiment: Post-emergence biological efficacy; conditions: Echinochloa crus-galli, 312 h, evaluated after 13 days, read-out: damage to plant (100=total damage to plant; 0=no damage to plant)
Procedure, shortened: (§2)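 Pot-grown plants were raised 14 days in a glasshouse (24/19 °C day/night, 16 h light), then sprayed post-emergence with an aqueous dilution of a 50 g/l IF50 formulation stock in 0.2% Genapol XO80. They were kept at 24/18 °C, 15 h light, 50% humidity, and visually scored for damage after 13 days (0 = none, 100 = total).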

LOLPE [8] = experiment: Post-emergence biological efficacy; conditions: Lolium perenne, 312 h, evaluated after 13 days, read-out: damage to plant (100=total damage to plant; 0=no damage to plant)
Procedure, shortened: as §2

DIGSA = experiment: Post-emergence biological efficacy; conditions: Digitaria sanguinalis, 312 h, evaluated after 13 days, read-out: damage to plant (100=total damage to plant; 0=no damage to plant)
Procedure, shortened: as §2

ELEIN = experiment: Post-emergence biological efficacy; conditions: 312 h, evaluated after 13 days, read-out: damage to plant (100=total damage to plant; 0=no damage to plant)
Procedure, shortened: as §2

EPHHL [9] = experiment: Post-emergence biological efficacy; conditions: Euphorbia heterophylla, 312 h, evaluated after 13 days, read-out: damage to plant (100=total damage to plant; 0=no damage to plant)
Procedure, shortened: as §2

IPOHE [10] = experiment: Post-emergence biological efficacy; conditions: Ipomoea hederacea, 312 h, evaluated after 13 days, read-out: damage to plant (100=total damage to plant; 0=no damage to plant)
Procedure, shortened: as §2

SETFA [11] = experiment: Post-emergence biological efficacy; conditions: Setaria faberi, 312 h, evaluated after 13 days, read-out: damage to plant (100=total damage to plant; 0=no damage to plant)
Procedure, shortened: as §2

CHEAL = experiment: Post-emergence biological efficacy; conditions: Chenopodium album, 312 h, evaluated after 13 days, read-out: damage to plant (100=total damage to plant; 0=no damage to plant)
Procedure, shortened: as §2

AMAPA [12] = experiment: Post-emergence biological efficacy; conditions: Amaranthus palmeri, 312 h, evaluated after 13 days, read-out: damage to plant (100=total damage to plant; 0=no damage to plant)
Procedure, shortened: as §2

Measured: pest or weed control at 250 g/ha

CCOC(=O)C1(C)CC(c2cc(-c3nccnc3C)c(F)cc2Cl)=NO1 (stereo not drawn) [Compound 1-775, Ethyl 3-[2-chloro-4-fluoro-5-(3-methylpyrazin-2-yl)phenyl]-5-methyl-4H-isoxazole-5-carboxylate]
50%: ELEIN | SETFA [11]
20%: ECHCG [7] | DIGSA
40%: EPHHL [9]
60%: CHEAL | AMAPA [12]
30%: IPOHE [10]
0%: all other assays above

CCOC(=O)C1(C)CC(c2cc(-c3cccc(C(F)(F)F)n3)c(F)cc2Cl)=NO1 (stereo not drawn) [Compound 1-43, Ethyl 3-[2-chloro-4-fluoro-5-[6-(trifluoromethyl)-2-pyridyl]phenyl]-5-methyl-4H-isoxazole-5-carboxylate]
20%: AMAPA [6] | ECHCG [7] | EPHHL [9]
80%: CHEAL | AMAPA [12]
90%: SETFA [11]
60%: IPOHE [10]
70%: ELEIN
30%: DIGSA
0%: all other assays above

CCOC(=O)C1(C)CC(c2cc(-c3ncc(S(C)(=O)=O)cc3Cl)c(F)cc2Cl)=NO1 (stereo not drawn) [Compound 1-643, Ethyl 3-[2-chloro-5-(3-chloro-5-methylsulfonyl-2-pyridyl)-4-fluoro-phenyl]-5-methyl-4H-isoxazole-5-carboxylate]
100%: all assays above

CCOC(=O)C1(C)CC(c2cc(-c3cc(Cl)nc(OC)c3)c(F)cc2Cl)=NO1 (stereo not drawn) [Compound 1-523, Ethyl 3-[2-chloro-5-(2-chloro-6-methoxy-4-pyridyl)-4-fluoro-phenyl]-5-methyl-4H-isoxazole-5-carboxylate]
10%: ELEIN
40%: CHEAL
60%: IPOHE [10]
50%: DIGSA | EPHHL [9] | SETFA [11] | AMAPA [12]
20%: ECHCG [1] | ECHCG [7]
0%: all other assays above

CCOC(=O)C1(C)CC(c2cc(-c3cccnc3)c(F)cc2Cl)=NO1 (stereo not drawn) [Compound 1-247, Ethyl 3-[2-chloro-4-fluoro-5-(3-pyridyl)phenyl]-5-methyl-4H-isoxazole-5-carboxylate]
10%: ELEIN | EPHHL [9]
60%: AMAPA [6]
0%: all other assays above
